Assays:
MCF7 [1] = assay: Growth inhibitory activity against MCF-7 human breast tumor cell line at a concentration of 10e-6 M in vitro.; assay type: functional; set-up: scale not given: the % may be the effect or the level left
MCF7 [2] = assay: Growth inhibitory activity against MCF-7 human breast tumor cell line at a concentration of 10e-8 M in vitro.; assay type: functional; set-up: scale not given: the % may be the effect or the level left
MCF7 [3] = assay: Growth inhibitory activity against MCF-7 human breast tumor cell line at a concentration of 10e-7 M in vitro.; assay type: functional; set-up: scale not given: the % may be the effect or the level left
[4] = molecular target: Estrogen receptor (Homo sapiens) (UniProt Q92731+P03372); assay: Relative binding affinity against estrogen receptors in MCF-7 whole cells; assay type: cell-based; settings: MCF7

Row | relative binding affinity (RBA) [4] | SMILES | Activity (MCF7 [1]) [%] | Activity (MCF7 [2]) [%] | Activity (MCF7 [3]) [%]
1 |  | CC/C(=C(/c1ccc(I)cc1)c1ccc(OCCN(C)C)cc1)c1ccccc1 | 120 | 99 | 126
2 |  | CC/C(=C(\c1ccc(I)cc1)c1ccc(OCCN2CCCC2)cc1)c1ccccc1 [IDOXIFENE] | 20 | 84 | 27
3 |  | CC/C(=C(\c1ccc(Cl)cc1)c1ccc(OCCN(C)C)cc1)c1ccccc1 | 56 | 116 | 119
4 |  | CC/C(=C(\c1ccc(OCCN(C)C)cc1)c1ccc(S(C)(=O)=O)cc1)c1ccccc1 | 140 | 88 | 114
5 |  | CCC(=C(c1ccc(O)cc1)c1ccc(OCCN(C)C)cc1)c1ccccc1 | 15 | 48 | 38
6 |  | CC/C(=C(/c1ccc(OCCN(C)C)cc1)c1ccc(SC)cc1)c1ccccc1 | 54 | 154 | 66
7 |  | CC/C(=C(/c1ccc(Br)cc1)c1ccc(OCCN(C)C)cc1)c1ccccc1 | 174 | 110 | 163
8 |  | CC/C(=C(\c1ccc(I)cc1)c1ccc(OCCN(C)C)cc1)c1ccccc1 | 26 | 115 | 42
9 |  | CC/C(=C(/c1ccc(OCCN(C)C)cc1)c1ccc([S+](C)[O-])cc1)c1ccccc1 (centres undefined) | 238 | 177 | 237
10 |  | CC/C(=C(\c1ccc(Br)cc1)c1ccc(OCCN(C)C)cc1)c1ccccc1 | 63 | 130 | 101
11 |  | CC/C(=C(\c1ccc(OCCN(C)C)cc1)c1ccc(SC)cc1)c1ccccc1 | 69 | 102 | 117
12 |  | CC/C(=C(\c1ccc(I)cc1)c1ccc(OCCN(CC)CC)cc1)c1ccccc1 | 23 | 101 | 35
13 |  | CC/C(=C(/c1ccc(OCCN(C)C)cc1)c1ccc(S(C)(=O)=O)cc1)c1ccccc1 | 29 | 125 | 75
14 |  | CC/C(=C(\c1ccccc1)c1ccc(OCCN(C)C)cc1)c1ccccc1 [TAMOXIFEN] | 70 | 119 | 100
15 | 1.5 | CC/C(=C(\c1ccc(CO)cc1)c1ccc(OCCN(C)C)cc1)c1ccccc1 | 150 | 164 | 145
16 |  | CC/C(=C(\c1ccc(OCCN(C)C)cc1)c1ccc([S+](C)[O-])cc1)c1ccccc1 (centres undefined) | 67 | 112 | 135
17 |  | CC/C(=C(/c1ccccc1)c1ccc(OCCN(C)C)cc1)c1ccccc1 | 137 | 135 | 140
18 |  | CC/C(=C(/c1ccc(OCCN(C)C)cc1)c1ccc(C2CO2)cc1)c1ccccc1 (centres undefined) | 19 | 113 | 42
19 |  | CC/C(=C(\c1ccc(C=O)cc1)c1ccc(OCCN(C)C)cc1)c1ccccc1 | 42 | 62 | 38
20 |  | CC/C(=C(/c1ccc(OCCN(C)C)cc1)c1cccc(I)c1)c1ccccc1 | 27 | 100 | 68
21 |  | CC/C(=C(\c1ccc(S)cc1)c1ccc(OCCN(C)C)cc1)c1ccccc1 | 147 | 94 | 110

Source: ChEMBL document CHEMBL1124667 (1989)
